The structures appear in SMILES notation. A value given as a limit tells only on which side of the number the result lay.

In general, IC50 refers to the concentration that inhibits the measured activity by half. Read a high IC50 as lower potency.

In one test the target is Cbl-b (Homo sapiens (Human), UniProt Q13191). Description: Cbl-b LCK Ub TR-FRET assay (Cbl-b Lck HTRF). In kind it is biochemical. The conditions noted are these: for IC50: Cbl-b LCK Ub TR-FRET; for (fold-selectivity) Cbl-b and C-Cbl Selectivity / fold-selectivity (Cbl-b over C-cbl): ratio C-cbl Lck HTRF IC50 / Cbl-b Lck HTRF IC50. An outline of the steps: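 After the ubiquitination reaction, detection mixture was added and plates incubated 20 min at room temperature before reading. IC50 values were calculated with wells lacking LCK as the low control and DMSO as the high control.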
On the technique in general: TR-FRET usually uses a lanthanide donor and a delayed reading to cut background.

A further test addresses c-Cbl (Homo sapiens (Human), UniProt P22681). Description: C-Cbl LCK Ub TR-FRET assay (C-cbl Lck HTRF). The class given is biochemical. As for the experimental part:
6 μL of detection mixture was added to all wells and briefly centrifuged before incubating for 20 min at room temperature. […] IC50 was generated using no LCK as the low control and DMSO as the high control.

c-Cbl, sequence (P22681 47-435): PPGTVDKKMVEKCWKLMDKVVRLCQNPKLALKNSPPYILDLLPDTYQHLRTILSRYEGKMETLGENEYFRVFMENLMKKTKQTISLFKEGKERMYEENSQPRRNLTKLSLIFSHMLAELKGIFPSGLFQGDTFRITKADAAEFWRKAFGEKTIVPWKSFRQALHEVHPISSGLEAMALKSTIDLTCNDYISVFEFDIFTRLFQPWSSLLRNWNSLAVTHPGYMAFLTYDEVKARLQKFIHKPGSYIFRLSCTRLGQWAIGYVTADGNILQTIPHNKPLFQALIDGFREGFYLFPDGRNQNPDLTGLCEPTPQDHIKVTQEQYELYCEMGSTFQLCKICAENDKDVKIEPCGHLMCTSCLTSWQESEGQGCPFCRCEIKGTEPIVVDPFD
Cbl-b, sequence (Q13191 40-426): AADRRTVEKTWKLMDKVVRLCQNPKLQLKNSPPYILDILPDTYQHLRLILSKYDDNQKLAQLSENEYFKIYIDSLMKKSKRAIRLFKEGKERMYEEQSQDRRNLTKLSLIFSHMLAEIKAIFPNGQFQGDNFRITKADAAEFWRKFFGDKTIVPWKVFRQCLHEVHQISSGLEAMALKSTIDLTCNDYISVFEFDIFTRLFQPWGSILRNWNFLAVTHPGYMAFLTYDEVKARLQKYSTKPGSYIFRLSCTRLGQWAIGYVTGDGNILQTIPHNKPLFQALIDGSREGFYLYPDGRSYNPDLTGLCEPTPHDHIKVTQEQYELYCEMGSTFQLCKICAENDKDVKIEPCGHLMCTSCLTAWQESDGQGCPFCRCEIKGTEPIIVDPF

For the molecule `Cn1cnnc1[C@@](O)(c1ccccc1)c1cccc(N2Cc3c(Cl)cc(CNC4(C)CCC4)cc3C2=O)c1` (single isomer, unassigned) [Compound 410], the IC50 at Cbl-b (Example 121) stood at 4500 nM; against c-Cbl, 15000 nM. Also, the “(fold-selectivity) Cbl-b and C-Cbl Selectivity” value at Cbl-b was 3.4x.
In the same order, the values of `Cn1cnnc1[C@](O)(c1ccccc1)c1cccc(N2Cc3c(Cl)cc(CNC4(C)CCC4)cc3C2=O)c1` (single isomer, unassigned) [Compound 411] are no less than 20000 nM, 20000 nM and 1.0x.
In the same order, the values of `Cn1cnnc1[C@H](c1cccc(N2Cc3c(cc(CNC4(C)CCC4)cc3C(F)(F)F)C2=O)c1)C1(O)CCC1` (single isomer, unassigned) [Compound 428] are 5300 nM, 20000 nM and 3.8x.
Consider `Cn1cnnc1[C@H](c1cccc(N2Cc3c(cc([C@@H](NC4(C)CCC4)C4CCC4)cc3C(F)(F)F)C2=O)c1)C1COC1` (single isomer, unassigned) [Compound 435], for which the 50% inhibitory concentration (IC50) against Cbl-b (Example 121) is 8500 nM; at c-Cbl, 20000 nM. Moreover, the “(fold-selectivity) Cbl-b and C-Cbl Selectivity” value at Cbl-b is 2.4x.
Turning to `CC1(NCc2cc3c(c(C(F)(F)F)c2)CN(c2cccc([C@H](C4COC4)n4ccnn4)c2)C3=O)CCC1` (single isomer, unassigned) [Compound 437], the half-inhibitory concentration (IC50) against Cbl-b (Example 121) was no less than 20000 nM; against c-Cbl, 20000 nM. At Cbl-b, the “(fold-selectivity) Cbl-b and C-Cbl Selectivity” value amounted to 1.0x.
In the same order, the values of `Cn1cnnc1[C@@H](c1cccc(N2Cc3c(cc(CNC4(C)CCC4)cc3C(F)(F)F)C2=O)c1)[C@@H]1CCS(=O)(=O)C1` (single isomer, unassigned) [Compound 438] are 3000 nM, 20000 nM and 6.8x.
In the same order, the values of `Cn1cnnc1[C@H](c1cccc(N2Cc3c(cc(CNC4(C)CCC4)cc3C(F)(F)F)C2=O)c1)[C@@H]1CCS(=O)(=O)C1` (single isomer, unassigned) [Compound 439] are 14000 nM, 20000 nM and 1.4 x.
In the same order, the values of `CC1(NCc2cc3c(c(C(F)(F)F)c2)CN(c2cccc([C@H](c4nnc[nH]4)C4COC4)c2)C3=O)CCC1` (single isomer, unassigned) [Compound 440] are 66 nM, 400 nM and 6.0x.
As to `CC1(NCc2cc3c(c(C(F)(F)F)c2)CN(c2cccc([C@@H](c4nnc[nH]4)C4COC4)c2)C3=O)CCC1` (single isomer, unassigned) [Compound 441], the results for the 50% inhibitory concentration (IC50) at Cbl-b (Example 121) and on c-Cbl were 6300 nM and 20000 nM, respectively. Also, the “(fold-selectivity) Cbl-b and C-Cbl Selectivity” value at Cbl-b was 3.2x.
In the same order, the values of `Cn1cnnc1[C@H](c1cccc(N2Cc3c(cc([C@@H](NC4(C)CCC4)C4CC4)cc3C(F)(F)F)C2=O)c1)C1COC1` (single isomer, unassigned) [Compound 457] are 7100 nM, 11000 nM and 1.6x.
In the same order, the values of `Cn1cnnc1[C@@H](c1cccc(N2Cc3c(cc(CNCC4(C)CC4)cc3C(F)(F)F)C2=O)c1)C1COC1` (single isomer, unassigned) [Compound 465] are 6.6 nM, 12 nM and 1.8x.
In the same order, the values of `Cn1cnnc1[C@@H](c1cccc(N2Cc3c(cc(CN[C@@H]4C[C@@H]5C[C@@H]5C4)cc3C(F)(F)F)C2=O)c1)C1COC1` (single isomer, unassigned) [Compound 469] are 5.3 nM, 4.5 nM and 0.85x.
For the molecule `Cn1cnnc1[C@@H](c1cccc(N2Cc3c(cc(CN[C@H]4[C@@H]5COC[C@@H]54)cc3C(F)(F)F)C2=O)c1)C1COC1` (single isomer, unassigned) [Compound 472], the figures for the IC50 on Cbl-b (Example 121) and at c-Cbl were 13 nM and 42 nM, respectively. Also, the “(fold-selectivity) Cbl-b and C-Cbl Selectivity” value on Cbl-b came to 3.2x.
Turning to `CCOc1cc([C@]2(c3nncn3C)C[C@@H](C)C2)cc(N2Cc3c(cc(CNC4(C)CCC4)cc3C(F)(F)F)C2=O)n1` [Compound 3, 2-(6-ethoxy-4-((1s,3s)-3-methyl-1-(4-methyl-4H-1,2,4-triazol-3-yl)cyclobutyl)pyridin-2-yl)-6-(((1-methylcyclobutyl)amino)methyl)-4-(trifluoromethyl)isoindolin-1-one], the values for the concentration for half-maximal inhibition (IC50) against Cbl-b and against c-Cbl were 3.6 nM and 2.5 nM, respectively. Further, the “fold-selectivity (Cbl-b over C-cbl)” value at Cbl-b is on record as “(0.69x)”.
For `CCOc1cc([C@]2(c3nncn3C)C[C@H](C)C2)cc(N2Cc3c(cc(CNC4(C)CCC4)cc3C(F)(F)F)C2=O)n1` [Compound 4, 2-(6-ethoxy-4-((1r,3r)-3-methyl-1-(4-methyl-4H-1,2,4-triazol-3-yl)cyclobutyl)pyridin-2-yl)-6-(((1-methylcyclobutyl)amino)methyl)-4-(trifluoromethyl)isoindolin-1-one], at Cbl-b, inhibition was half-maximal at 6.6 nM (IC50) and the “fold-selectivity (Cbl-b over C-cbl)” value is on record as “(0.91x)”. Moreover, on c-Cbl, half-maximal inhibition (IC50) required 6 nM.
In the same order, the values of `CCNc1cc([C@]2(c3nncn3C)C[C@@H](C)C2)cc(N2Cc3c(cc(CNC4(C)CCC4)cc3C(F)(F)F)C2=O)n1` [Compound 5, 2-(6-(ethylamino)-4-((1s,3s)-3-methyl-1-(4-methyl-4H-1,2,4-triazol-3-yl)cyclobutyl)-pyridin-2-yl)-6-(((1-methylcyclobutyl)amino)methyl)-4-(trifluoromethyl)isoindolin-1-one] are 7.1 nM, “(0.64x)” and 4.5 nM.
In the same order, the values of `CCNc1cc([C@]2(c3nncn3C)C[C@H](C)C2)cc(N2Cc3c(cc(CNC4(C)CCC4)cc3C(F)(F)F)C2=O)n1` [Compound 6, 2-(6-(ethylamino)-4-((1r,3r)-3-methyl-1-(4-methyl-4H-1,2,4-triazol-3-yl)cyclobutyl)-pyridin-2-yl)-6-(((1-methylcyclobutyl)amino)methyl)-4-(trifluoromethyl)isoindolin-1-one] are 11 nM, “(0.56x)” and 6.2 nM.
Take `CO[C@]1(C)C[C@](c2cccc(N3Cc4c(cc(CNC5(C)CCC5)cc4C(F)(F)F)C3=O)c2)(c2nncn2C)C1` [Compound 29, 2-(3-((1s,3s)-3-methoxy-3-methyl-1-(4-methyl-4H-1,2,4-triazol-3-yl)cyclobutyl)phenyl)-6-(((1-methylcyclobutyl)amino)methyl)-4-(trifluoromethyl)isoindolin-1-one]: on Cbl-b, the half-maximal inhibitory concentration (IC50) is 83 nM and the “fold-selectivity (Cbl-b over C-cbl)” value is recorded as “(2.0x)”. The molecule further registered an IC50 against c-Cbl of 166 nM.
In the same order, the values of `Cn1cnnc1[C@]1(c2cccc(N3Cc4c(cc(CNC5(C)CCC5)cc4C(F)(F)F)C3=O)c2)C[C@@](C)(F)C1` [Compound 31, 2-(3-((1r,3r)-3-fluoro-3-methyl-1-(4-methyl-4H-1,2,4-triazol-3-yl)cyclobutyl)phenyl)-6-(((1-methylcyclobutyl)amino)methyl)-4-(trifluoromethyl)isoindolin-1-one] are 15 nM, “(2.2x)” and 33 nM.
In the same order, the values of `Cn1cnnc1[C@]1(c2cccc(N3Cc4c(cc(CNC5(C)CCC5)cc4C(F)(F)F)C3=O)c2)C[C@@H](F)C1` [Compound 36, 2-(3-((1r,3r)-3-fluoro-1-(4-methyl-4H-1,2,4-triazol-3-yl)cyclobutyl)phenyl)-6-(((1-methylcyclobutyl)amino)methyl)-4-(trifluoromethyl)isoindolin-1-one] are 11 nM, “(1.1x)” and 12 nM.
For the molecule `Cn1cnnc1C1(c2cccc(N3Cc4c(cc(CNC5(C)CCC5)cc4C(F)(F)F)C3=O)c2)CC(C)(C)C1` [Compound 39, 2-(3-(3,3-dimethyl-1-(4-methyl-4H-1,2,4-triazol-3-yl)cyclobutyl)phenyl)-6-(((1-methylcyclobutyl)amino)methyl)-4-(trifluoromethyl)-isoindolin-1-one], the concentration for half-maximal inhibition (IC50) against Cbl-b is 7.2 nM; on c-Cbl, 17 nM. For the same molecule, on Cbl-b, the “fold-selectivity (Cbl-b over C-cbl)” value is “(2.4x)”.
On to `Cn1cnnc1C1(c2cccc(N3Cc4c(cc(CNC5(C)CCC5)cc4C(F)(F)F)C3=O)c2)CC2(CCC2)C1` [Compound 40], for which, at Cbl-b, the IC50 is 8.9 nM and the “fold-selectivity (Cbl-b over C-cbl)” value is on record as “(3.2x)”. Besides, the IC50 at c-Cbl amounted to 28 nM.
Regarding `CC(C)[C@H]1CN(C)CCN1Cc1cc2c(c(C(F)(F)F)c1)CN(c1cccc(C3(c4nncn4C)CC4(COC4)C3)c1)C2=O` [Compound 41, (S)-6-((2-isopropyl-4-methylpiperazin-1-yl)methyl)-2-(3-(6-(4-methyl-4H-1,2,4-triazol-3-yl)-2-oxaspiro[3.3]heptan-6-yl)phenyl)-4-(trifluoromethyl)isoindolin-1-one], on Cbl-b, the midpoint of inhibition, the IC50, lay at 21 nM and the “fold-selectivity (Cbl-b over C-cbl)” value was “(2.8x)”. In addition, it took 59 nM to reach half-maximal inhibition at c-Cbl (IC50).
In the same order, the values of `Cn1cnnc1[C@H](OC1CCC1)c1cccc(N2Cc3c(cc(CNC4(C)CCC4)cc3C(F)(F)F)C2=O)c1` [Compound 47, (R)-2-(3-(cyclobutoxy(4-methyl-4H-1,2,4-triazol-3-yl)methyl)phenyl)-6-(((1-methylcyclobutyl)amino)methyl)-4-(trifluoromethyl)isoindolin-1-one] are 1200 nM, “(1.9x)” and 2300 nM.

Source of the values: patent US12187709B2 (Genentech, Inc., priority 2021, dated 2025).
